# PMC12117711, “The contribution of cyclic imide stereoisomers on cereblon-dependent activity†” (Chemical Science, 2025)
# Non-standard residues stand in square brackets, D forms with d. No end group written: not given here. *: point of attachment. epicN = C-terminal cyclic asparagine (aspartimide), (R)-epimer, epimer of cN, O=C1C[C@@H](N*)C(=O)N1; cQ = C-terminal cyclic glutamine (glutarimide), (S)-epimer, O=C1CC[C@H](N*)C(=O)N1; Fmoc = O=C(OCC1c2ccccc2-c2ccccc21)*
# B1: Fmoc-GGGFcQ (peptide)
# peptide: Fmoc-GGGF[cQ]
# notes: pentapeptide bearing the (S)-epimer of cyclic glutamine at the C-terminus; also called FcQ pentapeptide; source: synthetic peptide
# Experiments:
# [1] = in vitro, 0.1 M phosphate buffer (pH 7.4), 37 °C; cited from earlier work
# [2] = tested on: CRBN; set-up: method as in PMID 29358579, PMID 32929090, PMID 25043012, PMID 25108355; settings: cited from earlier work
# [3] = molecular target: T1, His6-CRBN/DDB1 and GST-BRD4(BD2) (Homo sapiens, UniProt O60885+Q96SW2); test: AlphaScreen ternary complex formation, His6-CRBN/DDB1 and GST-BRD4(BD2); assay type: binding
# T1 construct: His6-CRBN/DDB1 complex and GST-BRD4 BD2 domain; purchased Epicypher (GST-BRD4(BD2)); Bristol Myers Squibb gift (His6-CRBN/DDB1) 15-0013
# Protocol: AlphaScreen was performed according to the previously reported method.7 Briefly, for AlphaScreen of His6-CRBN/DDB1, GST-IKZF1 and (S)-, (R)- or rac-lenalidomide-d3, a solution of 100 nM His6-CRBN/DDB1 and 200 nM GST-IKZF1 in 1x AlphaScreen buffer (5 µL) and a solution of the indicated compound in 1x AlphaScreen buffer (5 µL) were added to a each well of a 384-well Optiplate and incubated at 24 °C for 1 h. To each well, a solution of 5 µL of 60 µg/mL AlphaScreen Glutathione Donor beads, 60 µg/mL AlphaLISA Nickel Chelate Donor beads in 1× AlphaScreen buffer was added to each well and incubated at 24 °C for 1 h in the dark and the plate was analyzed. For AlphaScreen of His6-CRBN/DDB1, GST-BRD4(BD2) and bivalent degraders, a solution of 750 nM His-CRBN/DDB1 and 375 nM GST-BRD4(BD2) in 1x AlphaScreen buffer (5 µL) and a solution of the indicated compound in 1x AlphaScreen buffer (5 µL) were added to a each well of a 384-well Optiplate and incubated at 24 °C for 1 h. To each well, a solution of 5 µL of 60 µg/mL AlphaScreen Glutathione Donor beads, 60 µg/mL AlphaLISA Nickel Chelate Donor beads in 1× AlphaScreen buffer was added to each well and incubated at 24 °C for 1 h in the dark and the plate was analyzed. […]
# heated at 95 °C for 5 min. 10 µL of the immunoprecipitated sample was load on a 12% Tris-glycine gel and probe-labeling was visualized by fluorescence signal. Separately, 10 µL of the immunoprecipitated sample and the “input” sample were load on a 12% Tris-glycine gel and analyzed by Western blotting. […]
# Parental cell lines were stably infected with a unique 24-nucleotide DNA barcode via lentiviral transduction and blasticidin selection. […] Passing barcoded lines were then pooled (20-25 cell lines per pool) based on doubling time and frozen in assay-ready vials.
# Test compounds were added to 384-well plates and run at 8 pt. dose with 3-fold dilutions, the highest concentration of 25 µM in triplicate. These assay ready plates were then seeded with […]
# [4] = molecular target: T2, BRD4(BD1)-GFP in HEK293T cells (Homo sapiens, UniProt O60885+Q96SW2); test: Degradation assay by flow cytometry, BRD4(BD1)-GFP; assay type: cell-based; settings: 76 pM–20 μM, 4 h
# T2 construct: HEK293T cells stably expressing BRD4(BD1) fused to GFP
# Protocol: (v21.1.1) and Adobe Illustrator (v24.1).
# MM.1S, MOLM13, Jurkat, and BxPC3 […]
# μg/mL), and 10% (v/v) FBS.
# Western Blotting Procedures […]
# lysates and the concentration was adjusted using lysis buffer. 5× SDS-PAGE loading buffer […]
# Protein samples (8–15 μL per lane) were […]
# precast gels for medium molecular weight proteins. Gels were transferred to membranes using […]
# for high molecular weight proteins. Membranes were stained with Ponceau S solution to visualize transfer and protein loading.
# Degradation assay by flow cytometry […]
# resuspension in DMEM +/– without phenol red. For IKZF1 degradation assay, propidium […]
# equipped with a high throughput sampler. […]
# using the BD FACSDiva software v9.1. For each experimental condition, the arithmetic mean […]
# comparing compound treatment to DMSO control.
# Structural proteomics mass spectrometry sample preparation […]
# sample throughout the assay duration. The same analysis was also applied to the (S)- […]
# dependent activity, we adjusted the dose-response curves accordingly. Because dose- […]
# within the error margins of the original curve. […]
# squares F-test. This analysis determined whether there was a statistically significant […]
# derived (S)-enantiomer. If there is a statistically significant difference, the null […]
# Cells were treated with 1 μM MLN4924
# The cells were collected and lysed in […]
# centrifugation (21,000 × g, 4 °C, 10 min). […]
# [5] = tested on: MOLM13 cells; test: Global quantitative proteomics of protein levels; assay type: cell-based; settings: 4 h; for FC [fold change abundances (S/DMSO)] / logFC (S vs DMSO): MOLM13, 100 nM
# Protocol: Global Quantitative Proteomics Sample Preparation and Mass Spectrometry Acquisition Global Quantitative Proteomics was performed according to the previously reported method.7 Briefly, 1.0×10^6 MOLM13 cells were seeded in 12-well plates and small molecules of interest were added, and cells were incubated at 37 °C, 5% CO2 for 4 hours. Cells were collected […]
# 15 sec in total, 11% amplitude) in lysis buffer (5% SDS in 50 mM triethylammonium bicarbonate (TEAB), pH 7.55), and cleared by centrifugation (21,000 × g, 4 °C, 10 min). After protein quantification by BCA protein assay, the lysates were diluted to 1.5 mg/mL with the lysis buffer. The diluted lysates (60 μL) were reduced by addition of dithiothreitol (20 mM) at 24 °C for 30 min then alkylated by addition of iodoacetamide (40 mM) and incubation in the dark at 24 °C for 30 min.
# [6] = molecular target: His6-CRBN/DDB1 (Homo sapiens, UniProt Q96SW2); test: TR-FRET ligand displacement assay (Thal-FITC tracer) with His6-CRBN/DDB1
# [7] = molecular target: T3, His6-CRBN/DDB1 complex (UniProt Q96SW2 1-442; Q16531 1-1140); test: AlphaScreen or HTRF; competitive TR-FRET ligand displacement assay against recombinant His6-CRBN/DDB1; KD from dose-titration of the ligand; settings: both partners purified
# T3 construct: cereblon (CRBN), E3 ligase substrate adapter; DDB1, in complex with CRBN; Used as a preformed complex in TR-FRET and AlphaScreen; also called cereblon; source: recombinant
# [8] = molecular target: T4, His6-CRBN/DDB1 complex (UniProt Q96SW2 1-442; Q16531 1-1140); test: AlphaScreen or HTRF; competitive TR-FRET ligand displacement; peptide titrated against recombinant His6-CRBN/DDB1 (2.5 nM) with the tracer Thalidomide-FITC (50 nM); KD from IC50 by the correction factor 1.426 (tracer KD 2-site 117.3 nM); settings: both partners purified
# T4 construct: cereblon (CRBN), E3 ligase substrate adapter; DDB1, in complex with His6-CRBN; Column 'Protein' of S0003 says only 'CRBN'; the text and legends name His6-CRBN/DDB1 for this TR-FRET assay; also called cereblon; source: recombinant
# [9] = molecular target: His6-CRBN/DDB1 complex (UniProt Q96SW2); test: AlphaScreen or HTRF; competitive TR-FRET ligand displacement assay against recombinant His6-CRBN/DDB1; KD from dose-titration of the ligand
molecule,measurement,setting,value
O=C1CC[C@@H](N2C(=O)c3ccccc3C2=O)C(=O)N1 [(R)-thalidomide],t50%ee (racemization half-life),[1],2.9 h
O=C1CC[C@H](N2C(=O)c3ccccc3C2=O)C(=O)N1 [(S)-thalidomide],fold greater binding affinity to CRBN than (R)-thalidomide,[2],approximately 10 fold
[2H]C1([2H])C[C@]([2H])(N2Cc3cc(NC(=O)CCCCCCCCNC(=O)C[C@@H]4N=C(c5ccc(Cl)cc5)c5c(sc(C)c5C)-n5c(C)nnc54)ccc3C2=O)C(=O)NC1=O [JQ1-(S)-Len-d3],ternary complex formation between His6-CRBN/DDB1 and GST-BRD4(BD2),[3],promoted a significant ternary complex formation
same,degradation of BRD4(BD1)-GFP,[4],depleted BRD4 in a dose-dependent manner
same,BRD4 protein levels by global quantitative proteomics,"[5]; MOLM13 cells, 100 nM",most significantly downregulated protein
same,FC [fold change abundances (S/DMSO)],[5]; protein BRD4,-1.354
same,logFC (S vs DMSO),[5]; protein BRD4,-0.6026
same,FC [fold change abundances (S/DMSO)],[5]; protein BRI3BP,2.54
same,logFC (S vs DMSO),[5]; protein BRI3BP,1.398
same,FC [fold change abundances (S/DMSO)],[5]; protein C8orf33,1.053
same,logFC (S vs DMSO),[5]; protein C8orf33,0.3248
same,FC [fold change abundances (S/DMSO)],[5]; protein KPNA3,1.127
same,logFC (S vs DMSO),[5]; protein KPNA3,0.397
same,FC [fold change abundances (S/DMSO)],[5]; protein PSME2,1.009
same,logFC (S vs DMSO),[5]; protein PSME2,0.2805
same,Kd,"[6]; KD, competitive TR-FRET, His6-CRBN/DDB1",< 1 nM
same,Kd,"[6]; predicted KD of the (S)-stereoisomer, ligand displacement assay adjusted for (S)-stereoisomer, (S)-stereoisomer in the (S)-sample, corrected for racemization",2.9 ± 0.2 nM
B1,Kd,[7],89 nM
Fmoc-GGGF[epicN] (pentapeptide; source: synthetic peptide) [Fmoc-GGGFepicN],IC50,[8],4.09 µM
same,Kd,[9],2870 nM
